Peptide text beside a SMILES is read from it.
Assays:
RXFP1 [1] = target: T1, RXFP1 (Homo sapiens, UniProt Q9HBX9); test: Eu-labelled H2 relaxin competition binding, whole HEK-293T cells stably transfected with RXFP1; details: RXFP1-expressing cells, Eu-labelled H2 relaxin; FIG. 2A
T1 construct: expressed in transfected cells; host or cells: HEK-293T
T1 sequence (Q9HBX9 1-757): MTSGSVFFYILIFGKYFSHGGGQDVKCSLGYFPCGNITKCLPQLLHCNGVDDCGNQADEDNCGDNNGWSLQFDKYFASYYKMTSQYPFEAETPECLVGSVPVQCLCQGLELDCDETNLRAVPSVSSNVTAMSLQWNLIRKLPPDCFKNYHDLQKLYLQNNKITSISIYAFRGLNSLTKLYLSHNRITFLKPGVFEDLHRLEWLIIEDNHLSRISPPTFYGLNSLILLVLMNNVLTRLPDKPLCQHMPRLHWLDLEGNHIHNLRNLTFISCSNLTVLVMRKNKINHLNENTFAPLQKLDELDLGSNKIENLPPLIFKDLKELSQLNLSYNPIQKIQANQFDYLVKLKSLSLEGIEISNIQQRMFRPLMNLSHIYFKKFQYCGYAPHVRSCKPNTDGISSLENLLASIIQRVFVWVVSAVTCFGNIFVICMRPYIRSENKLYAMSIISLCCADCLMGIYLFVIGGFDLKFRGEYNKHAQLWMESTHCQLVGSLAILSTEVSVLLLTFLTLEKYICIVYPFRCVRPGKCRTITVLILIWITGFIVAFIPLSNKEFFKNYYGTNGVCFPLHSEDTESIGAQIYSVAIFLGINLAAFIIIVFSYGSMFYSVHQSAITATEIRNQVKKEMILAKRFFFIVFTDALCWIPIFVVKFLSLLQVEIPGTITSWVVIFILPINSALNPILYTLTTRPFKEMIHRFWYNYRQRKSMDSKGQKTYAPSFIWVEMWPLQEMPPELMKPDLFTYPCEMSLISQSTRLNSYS
Protocol: Human embryonic kidney (HEK-293T) cells stably transfected with RXFP1 were cultured in RPMI 1640 medium supplemented with 10% fetal calf serum, 100 μg/ml penicillin, 100 μg/ml streptomycin and 2 mM L-glutamine and plated into 96-well pre-coated with poly-L-lysine for whole cell binding assays. Competition binding experiments were conducted with Eu^3+-labelled H2 relaxin (as per Shabanpoor et al., 2012, Biochem Biophys Res Commun. 420, 253-256) in the absence or presence of increasing concentrations of unlabelled relaxin-2 B chain derivatives. Nonspecific binding was determined with an excess of unlabelled peptides (500 nM H2 relaxin). Fluorescent measurements were recorded at an excitation wavelength of 340 nm and emission of 614 nm on a Victor plate reader (Perkin-Elmer Inc.). […] Statistical differences in pIC50 values were analyzed using one-way analysis of variance coupled to Newman Keul's multiple comparison test for multiple group comparisons in GraphPad Prism 6.

RXFP2 = target: T2, RXFP2 (Homo sapiens, UniProt Q8WXD0); test: cAMP reporter gene assay in HEK-293T cells transfected with RXFP2; format: cell-based; details: RXFP1- vs RXFP2-expressing HEK-293T cells; FIG. 3
T2 construct: expressed in transfected cells; host or cells: HEK-293T
Protocol: The ability of the relaxin-2 B chain peptide derivatives generated in Example 1 to stimulate cAMP response was also evaluated, using a cAMP reporter gene assay as described previously (Scott et al., 2006, J Biol Chem. 281, 34942-34954). HEK-293T cells co-transfected with either RXFP1 or RXFP2, or 7BP cells, and a pCRE β-galactosidase reporter plasmid were plated in 96-well plates. After 24 hours, the co-transfected cells were incubated with increasing concentrations of peptides in parallel to 10 nM of H2 relaxin or INSL3 for RXFP1- or RXFP2-transfected cells respectively. The amount of cAMP-driven β-galactosidase expression in each well was assessed with a colorimetric assay measuring absorbance at 570 nm on a microplate spectrophotometer. Ligand-induced cAMP stimulation was expressed as a percentage of maximal response of H2 relaxin or INSL3 for RXFP1 and RXFP2 cells respectively. Each data point was measured in triplicate and each experiment conducted independently at least three separate times. Statistical differences in pEC50 values were analyzed using one-way ANOVA coupled to Newman Keul's multiple comparison test for multiple group comparisons in GraphPad Prism 6.

RXFP1 [2] = target: T1, RXFP1; test: cAMP reporter gene assay (pCRE β-galactosidase) in HEK-293T cells transfected with RXFP1; format: cell-based; details: FIG. 3A, ERK data not shown

T2 sequence (Q8WXD0 whole entry): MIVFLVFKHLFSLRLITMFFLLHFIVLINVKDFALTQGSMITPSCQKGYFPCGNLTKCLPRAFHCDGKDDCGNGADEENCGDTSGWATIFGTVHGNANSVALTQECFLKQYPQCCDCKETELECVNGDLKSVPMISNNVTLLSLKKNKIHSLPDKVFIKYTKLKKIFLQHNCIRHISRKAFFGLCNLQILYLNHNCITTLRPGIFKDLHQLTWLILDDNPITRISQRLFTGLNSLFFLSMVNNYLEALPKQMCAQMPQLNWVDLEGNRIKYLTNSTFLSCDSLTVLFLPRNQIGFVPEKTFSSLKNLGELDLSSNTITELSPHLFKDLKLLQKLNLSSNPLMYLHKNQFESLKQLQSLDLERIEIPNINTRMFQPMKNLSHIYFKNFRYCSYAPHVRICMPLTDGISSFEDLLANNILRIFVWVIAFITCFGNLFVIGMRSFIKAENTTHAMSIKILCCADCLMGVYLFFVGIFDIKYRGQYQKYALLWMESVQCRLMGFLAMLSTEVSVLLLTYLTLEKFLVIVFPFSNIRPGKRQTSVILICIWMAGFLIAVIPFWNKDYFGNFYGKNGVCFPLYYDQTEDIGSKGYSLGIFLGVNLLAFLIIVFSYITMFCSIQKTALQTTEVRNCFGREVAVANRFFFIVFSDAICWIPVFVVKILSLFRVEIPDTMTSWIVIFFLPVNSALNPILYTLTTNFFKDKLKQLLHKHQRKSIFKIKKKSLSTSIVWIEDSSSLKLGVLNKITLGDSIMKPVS

Question: Which “Binding to RXFP1 (in words)” value (RXFP1 [1]) does the source give for CC[C@H](C)[C@H](NC(=O)[C@H](C)NC(=O)[C@@H](NC(=O)[C@H](CCC(N)=O)NC(=O)[C@H](C)NC(=O)[C@H](CCCNC(=N)N)NC(=O)[C@@H](NC(=O)[C@H](CC(C)C)NC(=O)[C@H](CCC(=O)O)NC(=O)[C@H](CCCNC(=N)N)NC(=O)CNC(=O)[C@H](CO)NC(=O)[C@H](CC(C)C)NC(=O)[C@H](CCCCN)NC(=O)[C@@H](NC(=O)[C@@H](N)C(C)C)[C@@H](C)CC)C(C)C)[C@@H](C)CC)C(=O)N[C@@H](CO)C(=O)NCC(=O)N[C@@H](CCSC)C(=O)N[C@@H](CO)C(=O)N[C@H](C(=O)N[C@@H](Cc1c[nH]c2ccccc12)C(=O)N[C@@H](CO)C(=O)N[C@@H](CCCCN)C(=O)N[C@@H](CCCNC(=N)N)C(=O)N[C@@H](CO)C(=O)N[C@@H](CC(C)C)C(N)=O)[C@@H](C)O [B7-33 C11.23S] (H-VIKLSGRELVRAQIAISGMSTWSKRSL-NH2) here?
Answer: Its value is “binds RXFP1, but with lower affinity than H2 relaxin”.

Question: And the “Selectivity of cAMP stimulation, RXFP1 over RXFP2” value (RXFP2)?
Answer: The value was “selective at RXFP1 over RXFP2”.

Question: And the “Activation of cAMP and ERK signalling pathways in HEK-RXFP1 cells (in words)” value (RXFP1 [2])?
Answer: The value was “full agonist, but with poor potency”.

Source: patent publication US10081662B2, “Modified relaxin B chain peptides” (The Florey Institute of Neuroscience and Mental Health, priority 2014, dated 2018)
